According to US12076309B2, “Compounds for the treatment of cancers associated with human papillomavirus” (Piramal Enterprises Limited, priority 2011, dated 2024):

Assays:
SiHa and HeLa cells = assay: Senescence assay (senescence associated β-galactosidase staining); type: cell-based, human; settings: stably p53-EGFP expressing SiHa and HeLa cells; intense blue staining in the cytosol
Description: This assay was performed to detect senescence associated β-galactosidase staining to check the senescence status in the treated cells. Materials and methods: Two cervical cancer cell lines SiHa and HeLa (ATCC), positive for HPV genome were used. The cell lines were transfected with the expression vector containing p53-EGFP using lipofectamine (Invitrogen, CA, USA). After 48 h of transfection the cells were maintained for 30-45 days in DMEM (Sigma Aldrich, catalogue no. D5546) supplemented with 10% FBS and 800 μg/mL Geneticin (Gibco BRL Life Technologies, Inc) for 30-45 days. The stably expressing cells were used for the Senescence assay. Biological Studies: The stably expressing cells were treated with Compound A and Compound B separately and fixed for 5 minutes in 3% formaldehyde, washed, and incubated at 37° C. with 5-bromo-4-chloro-3-indolyl R-D-galactopyranoside solution (1 mg/ml), (prepared by dissolving in a solution containing 40 mM citric acid (pH 6.5), 5 mM potassium ferrocyanide, 5 mM potassium ferricyanide, 150 mM NaCl, and 2 mM MgCl2). After overnight incubation at 37° C., tissues or cells were visualized by microscopy.

p53 [1] = assay: Western blot of p53 in treated SiHa cells; type: cell-based, human; settings: treated 24 h, vs untreated cells, hydrochloride
Description: (§1) Materials and Methods: Two cervical cancer cell lines SiHa and HeLa (ATCC), positive for HPV genome were used for evaluation of Compound A and Compound B. The cell lines were transfected with a plasmid vector expressing p53 protein fused with a fluorescent protein EGFP using lipofectamine (Invitrogen, CA, USA). After 48 h of transfection the cells were maintained for 30-45 days in DMEM (Sigma Aldrich, catalogue no. D5546) supplemented with 10% FBS and 800 μg/mL Geneticin (Gibco BRL Life Technologies, Inc) for 30-45 days. The stably expressing cells were expanded and evaluated for the presence of fusion construct under fluorescent microscopy. After 24 h of transfection, the cells were treated separately with Compound A and Compound B (henceforth referred to as treated cells) for 24 h. Cells were harvested and were used for analysis of status of E6, E7, p53 by western blot and by RT-PCR. Cells not treated with the Compound A and Compound B (henceforth referred to as untreated cells) were used as controls. HPV negative C33A cell was used as negative control. The terms fresh medium and culture medium refer to DMEM (catalogue no. D5546).
(§2) To prepare whole cell extracts for Western blot, the treated cells were lysed in lysis buffer (50 mM Tris-HCl (pH 7.4), 1% NP-40, 40 mM NaF, 10 mM NaCl, 10 mM Na3VO4, 1 mM phenylmethylsulfonyl fluoride, and 10 mM dithiothreitol and 1 μg/ml each of leupeptin and aprotinin). The cell lysates (50 μg) were resolved by SDS-PAGE and the separated proteins (E6, E7 and p53) were transferred to polyvinylidene difluoride membrane (PVDF) by wet transfer method using Bio-Rad electro-transfer apparatus. After blocking with 10% non-fat milk in Tris buffered saline containing 0.2% Tween-20, the membrane was incubated with the primary antibody, followed by HRP-conjugated secondary antibody. Proteins were visualized by 3, 3′-Di amino benzidine (DAB) method. Similar procedure was followed for untreated cells.
(§3) The following antibodies were used for western blot with the indicated dilutions.

[2] = tested on: SiHa (HPV 16 positive cervical cancer) cell line; assay: SiHa human cervical cancer xenograft mouse model; type: in vivo; settings: days 1-6 and 12-17, nude mice
Description: In vivo efficacy of the compounds of the present invention for the treatment of HPV associated cancer was studied by using SiHa (HPV 16 positive cervical cancer) cell line.
SiHa Human Cervical Cancer Xenograft Mouse Model
Animals used: Nude Nu/J, Homozygous for FOXn1(Nu) male mice, 4 to 6 weeks old, weighing 22 to 25 g (Harlan Laboratories, US). Animals were housed in animal isolator under specified pathogen-free conditions maintained at 22 to 25° C. and 55 to 75% humidity, with a 12-hour light/12-hour dark cycle. The mice were acclimatized for a period of seven days before experimentation. Animals were handled in a laminar flow hood. All food and water was autoclaved.
The adherent SiHa cells (SiHa cell line—ATCC—HBT 35) were harvested using Trypsin-EDTA solution and suspension was centrifuged at 800 rpm for 5 minutes. The supernatant was removed and the cell pellet was re-suspended in 1 mL serum-free MEM medium. […]
Following parameters were observed during treatment: • 1. […] Tumor was measured 2-3 days apart, using vernier caliper.
Tumor volume in mm^3 was calculated using the formula for a prolate ellipsoid: Tumor volume (mm^3)=Length (mm)×[Breadth (mm)^2]×0.5 • assuming specific gravity of tumor as 1 and π as 3
Treated to control ratio (ΔT/ΔC %) on a given day was calculated using the formula:
Growth inhibition (GI) was calculated using the formula GI on Day X=100−ΔT/ΔC% on Day X

p53 [3] = assay: Western blot of p53 in treated HeLa cells; type: cell-based, human; settings: treated 24 h, vs untreated cells, hydrochloride
Description: as §1, §2, §3

Structure (SMILES)	senescence associated β-galactosidase staining (SiHa and HeLa cells)	expression of p53 protein (Western blot) (p53 [1])	expression of p53 protein (Western blot) (p53 [1]; listed as compound A)	tumor growth inhibition ([2]; 35 mg/kg once daily intraperitoneally)	expression of p53 protein (Western blot) (p53 [3])	expression of p53 protein (Western blot) (p53 [3]; listed as compound A)	expression of p53 protein (Western blot) (p53 [1]; listed as compound B)	tumor growth inhibition ([2]; 200 mg/kg once daily p.o.)	expression of p53 protein (Western blot) (p53 [3]; listed as compound B)
CN1CC[C@@H](c2c(O)cc(O)c3c(=O)cc(-c4ccccc4Cl)oc23)[C@@H]1CO.Cl [Compound A, (+)-trans-2-(2-Chlorophenyl)-5,7-dihydroxy-8-(2-hydroxymethyl-1-methyl-pyrrolidin-3-yl)-chromen-4-one hydrochloride]	induction of senescent like features	increased expression of p53 protein in a dose dependent manner	significant upregulation	significant tumor growth inhibition	increased expression of p53 protein in a dose dependent manner	significant upregulation			
CN1CC[C@@H](c2c(O)cc(O)c3c(=O)cc(-c4ccc(C(F)(F)F)cc4Cl)oc23)[C@@H]1CO.Cl [Compound B, (+)-trans-2-(2-chloro-4-trifluoromethyl-phenyl)-5,7-dihydroxy-8-(2-hydroxymethyl-1-methyl-pyrrolidin-3-yl)-chromen-4-one hydrochloride]	induction of senescent like features	increased expression of p53 protein in a dose dependent manner			increased expression of p53 protein in a dose dependent manner		significant upregulation	significant tumor growth inhibition	significant upregulation
